A short description of this series: RP, Thermo Scientific Acclaim RSLC 120 C18, 100 × 2.1 mm, 2.2 µm, 30 °C, 0.2 mL/min, estimated dead time 1.1 min; A: 90% water + 10% methanol + 0.01% formic acid + 5 mM ammonium formate, pH 3.61; B: methanol + 0.01% formic acid + 5 mM ammonium formate, pH 3.61; gradient (min/%B) 0/1 1/1 2/39 13/99.9 15/99.9 15.1/1 20.1/1. The settings on record: stereoisomer not certain.
Turning to `CCOC(=O)C(C)N(C(=O)c1ccccc1)c1ccc(Cl)c(Cl)c1` (stereo not given) [Benzoylprop-ethyl], the LC retention time is 11 min.
Under `COc1ncnc(NS(=O)(=O)c2ccc(N)cc2)c1OC` [Sulfadoxine] stands 4.75 min; under `CCN1CC(CCN2CCOCC2)C(c2ccccc2)(c2ccccc2)C1=O` (stereo not given) [Doxapram], 6.23 min.
The value for `Cc1onc(-c2c(Cl)cccc2Cl)c1C(=O)NC1C(=O)N2C1SC(C)(C)C2C(=O)O` (stereo not given) [Dicloxacillin] was 7.8 min; that for `Cc1cc(C)c(C2=C(OC(=O)CC(C)(C)C)C3(CCCC3)OC2=O)c(C)c1` [Spiromesifen] was 12.8 min.
Under `CCC(Cc1ccc2c(c1)OCO2)NC` (stereo not given) [MBDB] stands 4.66 min.
Take `CC(CN1c2ccccc2Sc2ccc(S(=O)(=O)N(C)C)cc21)N(C)C` (stereo not given) [Dimetotiazine]: the LC retention time is 7.01 min.
With `CC(=O)OCC(=O)C12N=C(C)OC1CC1C3CCC4=CC(=O)C=CC4(C)C3C(O)CC12C` (stereo not given) [Deflazacort], the LC retention time is 9.35 min.
The value for `O=C(c1cccc2ccccc12)c1nc2ccccc2n1CCCCCF` [FUBIMINA] was 11.6 min.
Regarding `CCNC(=O)c1ccc(OC)cc1` [N-ethyl-4-methoxybenzamide], the LC retention time is 5.59 min.
The value for `COc1ccnc(CS(=O)c2nc3ccc(OC(F)F)cc3[nH]2)c1OC` (stereo not given) [Pantoprazole] was 7.46 min; that for `O=C(Nc1cccc(C2=NCCN2)c1)Nc1cccc(C2=NCCN2)c1` [Imidocarb] was 3.78 min; that for `CCN(CC)CCOC(=O)c1ccc(N)cc1` [Procaine] was 3.21 min.
The value for `CCCc1nn(C)c2c(=S)nc(-c3cc(C(=S)N4CCN(C)CC4)ccc3OCC)[nH]c12` [carbodenafil-Dithio-desmethyl] was 11.5 min; that for `CCCNCC(O)COc1ccccc1C(=O)CCc1ccccc1` (stereo not given) [Propafenone] was 7.81 min.
Under `OC(Cn1cncn1)(c1ccc(F)cc1)c1ccccc1F` (stereo not given) [Flutriafol] stands 8.12 min; under `CN(C)C1CSSSC1` [Thiocyclam], 3.16 min.
For `O=c1[nH]c2ccccc2n1CCCN1CCC(n2c(=O)[nH]c3cc(Cl)ccc32)CC1` [Domperidone], the LC retention time is 6.27 min.
Under `CCC(C)(NC(=O)c1cc(Cl)c(C)c(Cl)c1)C(=O)CCl` (stereo not given) [Zoxamide] stands 11.1 min; under `CCC(c1cccc(O)c1)C(C)CNC` (stereo not given) [Tapentadol-N-Desmethyl], 5.14 min; under `Cc1cc(C)cc(OCC2CNC(=O)O2)c1` (stereo not given) [Metaxalone], 7.86 min.
`c1ccc(Nc2ccccc2)cc1` [Diphenylamine]: the LC retention time was 10.1 min.
As for `CCN1CCCC1CNC(=O)c1cc(S(N)(=O)=O)ccc1O` (stereo not given) [Sulpiride-O-Desmethyl], the LC retention time is 3.18 min.
The value for `CCCc1nc2c(C)cc(-c3nc4ccccc4n3C)cc2n1Cc1ccc(-c2ccccc2C(=O)O)cc1` [Telmisartan] was 10.3 min.
Under `CCc1cccc(C)c1N(C(=O)CS(=O)(=O)O)C(C)C(=O)O` (stereo not given) stands 10.9 min; under `CC(C1CC1)C(O)(Cn1cncn1)c1ccc(Cl)cc1` (stereo not given) [Cyproconazole], 9.89 min.
As to `CNC(=O)C(=NOC)c1ccccc1COc1cc(C)ccc1C` [Dimoxystrobin], the LC retention time was 10.7 min.
Under `Clc1cccc(N2CCNCC2)c1` [Chlorophenylpiperazine (meta-)<U+00A0>(mCPP)] stands 5.42 min; under `O=C(O)c1ccccc1C(=O)Nc1cccc2ccccc12` [Naptalam (N-1-Naphthylphthalamic acid)], 6.75 min; under `CNC(=O)Oc1cccc(N=CN(C)C)c1` [Formetanate], 3.14 min.
As for `NS(=O)(=O)c1cc2c(cc1Cl)NC(CSCc1ccccc1)=NS2(=O)=O` [Benzthiazide], the LC retention time was 6.81 min.
Regarding `CN(C)CCOC(C)(c1ccccc1)c1ccccn1` (stereo not given) [Doxylamine], the LC retention time is 5.18 min.
As to `O=C(CCCN1CCC(O)(c2cccc(C(F)(F)F)c2)CC1)c1ccc(F)cc1` [Trifluperidol], the LC retention time is 7.42 min.
The value for `CC1(C)C(C=C(Cl)Cl)C1C(=O)OCc1cccc(Oc2ccccc2)c1` (stereo not given) [Permethrin] was 13.9 min.
With `CN(C)CCCC1(c2ccc(F)cc2)OCc2cc(C(N)=O)ccc21` (stereo not given) [Citalopram amide], the LC retention time was 5.15 min.
For the compound `CN1CCCC1Cc1c[nH]c2ccc(CCS(=O)(=O)c3ccccc3)cc12` (stereo not given) [Eletriptan], the LC retention time was 5.51 min.
The value for `CCCCCn1cc(C(=O)c2cccc3ccccc23)c2ccc(OC)cc21` [JWH-018-6-Methoxy-Ind] was 12.4 min; that for `CCON=C(OC(=O)c1ccccc1)c1c(OC)ccc(Cl)c1OC` [Benzoximate] was 11.3 min; that for `CCc1c(C(=O)NCCc2ccc(N3CCCCC3)cc2)[nH]c2ccc(Cl)cc12` was 12.7 min.
`CC(C)N(CCc1c[nH]c2ccccc12)C(C)C` [DiPT]: the LC retention time was 4.87 min.
The value for `O=C1C(Cl)C(CCl)CN1c1cccc(C(F)(F)F)c1` (stereo not given) [Flurochloridone] was 9.84 min; that for `OC1(c2ccc(Cl)c(C(F)(F)F)c2)CCN(CCCC(c2ccc(F)cc2)c2ccc(F)cc2)CC1` [Penfluridol] was 10.1 min.
Regarding `CN1CCCC(CC2c3ccccc3Sc3ccccc32)C1` (stereo not given) [Metixene], the LC retention time is 8.51 min.
For the compound `CC(C)C(N)C(=O)OCC(CO)OCn1cnc2c(=O)[nH]c(N)nc21` (stereo not given) [Valganciclovir], the LC retention time is 2.71 min.
The value for `O=C(Nc1cccc2cccnc12)c1nn(CCCCCF)c2ccccc12` [THJ-5F] was 12.5 min; that for `O=C(O)COCCN1CCN(C(c2ccccc2)c2ccc(Cl)cc2)CC1` (stereo not given) [Cetirizine] was 8.79 min.
With `CC1(C)OC2CC3C4CCC5=CC(=O)CCC5(C)C4(F)C(O)CC3(C)C2(C(=O)CCl)O1` (stereo not given) [Halcinonide], the LC retention time is 10.8 min.
Under `CC12CCC(=O)C=C1CCC1C2CCC2(C)C1CCC2(C)O` (stereo not drawn) [Testosterone- 17-alpha-methyl] stands 10.4 min; under `COCCCOc1ccnc(CS(=O)c2nc3ccccc3[nH]2)c1C` (stereo not given) [Rabeprazole], 7.52 min.
The value for `O=C(c1ccccc1I)c1cn(CCCCCF)c2ccccc12` [AM-694] was 10.5 min; that for `Cc1ccccc1CC(C)N` (stereo not given) [Amphetamine-2-methyl (ortetamine)] was 5.17 min; that for `NC(=O)Nc1ccc(Cl)c(Cl)c1` [3-4-(dichlorophenyl)-urea] was 7.99 min.
The value for `CCC(=O)Nc1ccc(Cl)c(Cl)c1` [Propanil] was 9.38 min.
Turning to `O=S(=O)(Oc1ccc(Cl)cc1)c1ccc(Cl)cc1` [Chlorfenson.Ovex.chlorofenizon.ephirsulfonate.ovatron], the LC retention time is 11.1 min.
Take `CC12Cc3cn[nH]c3CC1CCC1C2CCC2(C)C1CCC2(C)O` (stereo not given) [Stanozolol]: the LC retention time was 11.3 min.
The value for `COc1ccc2c(c1O)-c1c3c(cc4c1C(C2)N(C)CC4)OCO3` (stereo not given) [Bulbocapnine] was 4.36 min.
Under `CCC(N)Cc1ccc2c(c1)OCO2` (stereo not given) [BDB] stands 4.73 min.
Under `NC12CC3CC(CC(C3)C1)C2` [Amantadine] stands 4.86 min; under `C[N+]1(CCC(O)(c2ccccc2)c2cccs2)CCOCC1` (stereo not given) [Tiemonium], 5.06 min; under `O=S1OCC2C(CO1)C1(Cl)C(Cl)=C(Cl)C2(Cl)C1(Cl)Cl` (stereo not given) [Endosulfan], 11.2 min.
As for `CC=C1CC(C)C(C)(O)C(=O)OCC2=CCN(C)CCC(OC1=O)C2=O` (stereo not given) [Senkirkine], the LC retention time is 5.16 min.
Under `CCCCCn1cc(C(=O)c2ccccc2OC)c2ccccc21` [RCS-4-ortho] stands 11.2 min; under `Cc1ccc(N(CC2=NCCN2)c2cccc(O)c2)cc1` [Phentolamine], 5.86 min; under `CCSC(=O)N(CC)C1CCCCC1` [Cycloate], 11.7 min.
On to `O=C(O)c1cn(-c2ccc(F)cc2)c2cc(N3CCNCC3)c(F)cc2c1=O` [Sarafloxacin], for which the LC retention time is 4.83 min.
For the compound `Cc1cc(C)n(-c2nc3ccccc3[nH]2)n1` [Rabenzazole], the LC retention time is 8.27 min.
Turning to `CC1c2cccc(O)c2C(O)=C2C(=O)C3(O)C(O)=C(C(N)=O)C(=O)C(N(C)C)C3C(O)C21` (stereo not given) [Doxycycline], the LC retention time is 6.2 min.
The value for `CCN1CCN(c2cc3c(cc2F)c(=O)c(C(=O)O)cn3C2CC2)CC1` [Enrofloxacin] was 4.64 min; that for `CC=CCC1=C(C)C(OC(=O)C2C(C=C(C)C)C2(C)C)CC1=O` (stereo not given) [Pyrethrins: Cinerin I] was 12.9 min; that for `CCCCOC(=O)COc1ccc(Cl)cc1Cl` [2.4-D-butylester] was 11.9 min.
The value for `Clc1ccc(C(Cn2ccnc2)OCc2c(Cl)cccc2Cl)c(Cl)c1` (stereo not given) [Isoconazole] was 12.3 min; that for `CN(C)P(=O)(OP(=O)(N(C)C)N(C)C)N(C)C` [Schradan] was 5.36 min; that for `COc1ccc(CC(C)N)cc1OC` (stereo not given) [DMA (3-4-)] was 3.94 min.
On to `CC=C(C)C(=O)OC1CC(OC(C)=O)C2(C(=O)OC)COC3C2C12COC(O)(C(=O)OC)C2C(C)(C12OC1(C)C1CC2OC2OC=CC21O)C3O` (stereo not given) [Azadirachtin], for which the LC retention time is 7.56 min.
Under `CC(=O)Nc1ccc(-c2ccc(C=NN3CC(=O)NC3=O)o2)cc1` [Acetaminodantrolene] stands 5.67 min.
